Values after ≈ are worked out from the molar mass of the structure shown.
Tests used:
Poliovirus 3 = test: microbe, parasite or virus in culture; format: cell-based; settings: Enterovirus C, read-out: Poliovirus3 EC50
in vitro = settings: human

SMILES | EC50 (Poliovirus 3) [µg/mL] | CC50 (in vitro) [µg/mL] | CC50 (in vitro; Picorana CC50) [µg/mL]
CC(C)c1ccc2c(c1)OC1(O)c3cccc(N)c3C(=O)C21NC(=O)c1cc(C(F)(F)F)ccn1 (centres unmarked) [Example 244, N-(1-Amino-4b-hydroxy-7-isopropyl-10-oxo-9b,10-dihydro-4bH-benzo[d]indeno[1,2-b]furan-9b-yl)-4-(trifluoromethyl)picolinamide] | < 0.01 | > 10 | 15.7 (≈ 32.5 µM)
CC(C)c1ccc2c(c1)OC1(O)c3cccc(N)c3C(=O)C21NC(=O)c1ccc(C#N)cn1 (centres unmarked) [Example 245, N-(1-Amino-4b-hydroxy-7-isopropyl-10-oxo-9b,10-dihydro-4bH-benzo[d]indeno[1,2-b]furan-9b-yl)-5-cyanopicolinamide] | < 0.01 | > 10 | 8.47 (≈ 19.2 µM)
CC(C)c1ccc2c(c1)OC1(O)c3cccc(N)c3C(=O)C21NC(=O)c1ncccc1Cl (centres unmarked) [Example 246, N-(1-Amino-4b-hydroxy-7-isopropyl-10-oxo-9b,10-dihydro-4bH-benzo[d]indeno[1,2-b]furan-9b-yl)-3-chloropicolinamide] | < 0.01 | > 10 | 9.84 (≈ 21.9 µM)
CC(C)c1ccc2c(c1)OC1(O)c3cccc(N)c3C(=O)C21NC(=O)c1cc2ccccc2cn1 (centres unmarked) [Example 248, N-(1-Amino-4b-hydroxy-7-isopropyl-10-oxo-9b,10-dihydro-4bH-indeno[1,2-b]benzofuran-9b-yl)isoquinoline-3-carboxamide] | 0.027 (≈ 0.058 µM) | > 10 | 4.99 (≈ 10.7 µM)
Cc1cc(C(=O)NC23C(=O)c4c(N)cccc4C2(O)Oc2cc(C(C)C)ccc23)ccn1 (centres unmarked) [Example 249, N-(1-Amino-4b-hydroxy-7-isopropyl-10-oxo-9b,10-dihydro-4bH-indeno[1,2-b]benzofuran-9b-yl)-2-methylisonicotinamide] | < 0.01 | > 10 | –
CC(C)c1ccc2c(c1)OC1(O)c3cccc(N)c3C(=O)C21NC(=O)c1ccncc1F (centres unmarked) [Example 250, N-(1-Amino-4b-hydroxy-7-isopropyl-10-oxo-9b,10-dihydro-4bH-indeno[1,2-b]benzofuran-9b-yl)-3-fluoroisonicotinamide] | < 0.01 | > 10 | –
CC(C)c1ccc2c(c1)OC1(O)c3cccc(N)c3C(=O)C21NC(=O)c1ccncc1Cl (centres unmarked) [Example 251, N-(1-Amino-4b-hydroxy-7-isopropyl-10-oxo-9b,10-dihydro-4bH-indeno[1,2-b]benzofuran-9b-yl)-3-chloroisonicotinamide] | < 0.01 | > 10 | –
CC(C)c1ccc2c(c1)OC1(O)c3cccc(N)c3C(=O)C21NC(=O)c1nccn1C (centres unmarked) [Example 252, N-(1-Amino-4b-hydroxy-7-isopropyl-10-oxo-9b,10-dihydro-4bH-indeno[1,2-b]benzofuran-9b-yl)-1-methyl-1H-imidazole-2-carboxamide] | < 0.01 | 3.53 (≈ 8.44 µM) | 3.64 (≈ 8.7 µM)
CC(C)c1ccc2c(c1)OC1(O)c3cccc(N)c3C(=O)C21NC(=O)c1cccc[n+]1[O-] (centres unmarked) [Example 253, 2-((1-Amino-4b-hydroxy-7-isopropyl-10-oxo-9b,10-dihydro-4bH-indeno[1,2-b]benzofuran-9b-yl)carbamoyl)pyridine 1-oxide] | < 0.01 | > 10 | –
CC(C)c1ccc2c(c1)OC1(O)c3cccc(N)c3C(=O)C21NC(=O)c1cncc(F)c1 (centres unmarked) [Example 255, N-(1-Amino-4b-hydroxy-7-isopropyl-10-oxo-9b,10-dihydro-4bH-indeno[1,2-b]benzofuran-9b-yl)-5-fluoronicotinamide] | < 0.01 | > 10 | –
CC(C)c1ccc2c(c1)OC1(O)c3cccc(N)c3C(=O)C21NC(=O)c1cncc(O)c1 (centres unmarked) [Example 256, N-(1-Amino-4b-hydroxy-7-isopropyl-10-oxo-9b,10-dihydro-4bH-indeno[1,2-b]benzofuran-9b-yl)-5-hydroxynicotinamide] | < 0.01 | > 10 | –
CC(C)c1ccc2c(c1)OC1(O)c3cccc(N)c3C(=O)C21NC(=O)c1ncccc1O (centres unmarked) [Example 257, N-(1-Amino-4b-hydroxy-7-isopropyl-10-oxo-9b,10-dihydro-4bH-indeno[1,2-b]benzofuran-9b-yl)-3-hydroxypicolinamide] | 0.031 (≈ 0.0719 µM) | > 10 | –
Cc1ccncc1C(=O)NC12C(=O)c3c(N)cccc3C1(O)Oc1cc(C(C)C)ccc12 (centres unmarked) [Example 258, N-(1-Amino-4b-hydroxy-7-isopropyl-10-oxo-9b,10-dihydro-4bH-indeno[1,2-b]benzofuran-9b-yl)-4-methylnicotinamide] | 0.04 (≈ 0.0931 µM) | > 10 | –
Cc1cncc(C(=O)NC23C(=O)c4c(N)cccc4C2(O)Oc2cc(C(C)C)ccc23)c1 (centres unmarked) [Example 259, N-(1-Amino-4b-hydroxy-7-isopropyl-10-oxo-9b,10-dihydro-4bH-indeno[1,2-b]benzofuran-9b-yl)-5-methylnicotinamide] | < 0.01 | > 10 | –
Cc1cc2c(cc1C)C1(NC(=O)c3cccnc3)C(=O)c3c(N)cccc3C1(O)O2 (centres unmarked) [Example 260, N-(1-Amino-4b-hydroxy-7,8-dimethyl-10-oxo-9b,10-dihydro-4bH-indeno[1,2-b]benzofuran-9b-yl)nicotinamide] | 0.04 (≈ 0.0996 µM) | > 10 | –
COc1cncc(C(=O)NC23C(=O)c4c(N)cccc4C2(O)Oc2cc(C(C)C)ccc23)c1 (centres unmarked) [Example 261, N-(1-Amino-4b-hydroxy-7-isopropyl-10-oxo-9b,10-dihydro-4bH-indeno[1,2-b]benzofuran-9b-yl)-5-methoxynicotinamide] | < 0.01 | > 10 | –
Cc1cc2c(cc1C)C1(NC(=O)c3ccc4ncccc4c3)C(=O)c3c(N)cccc3C1(O)O2 (centres unmarked) [Example 262, N-(1-Amino-4b-hydroxy-7,8-dimethyl-10-oxo-9b,10-dihydro-4bH-indeno[1,2-b]benzofuran-9b-yl)quinoline-6-carboxamide] | 0.0124 (≈ 0.0275 µM) | > 10 | –
CC(C)c1ccc2c(c1)OC1(O)c3cccc(N)c3C(=O)C21NC(=O)c1ccc2ccccc2n1 (centres unmarked) [Example 263] | 0.039 (≈ 0.0838 µM) | 5.4 (≈ 11.6 µM) | 7.65 (≈ 16.4 µM)
CC(C)c1ccc2c(c1)OC1(O)c3cccc(N)c3C(=O)C21NC(=O)c1cc2ccccc2[nH]1 (centres unmarked) [Example 265] | < 0.01 | 4.4 (≈ 9.7 µM) | 4.75 (≈ 10.5 µM)
CC(C)c1ccc2c(c1)OC1(O)c3cccc(N)c3C(=O)C21NC(=O)c1nccc2ccccc12 (centres unmarked) [Example 266, N-(1-Amino-4b-hydroxy-7-isopropyl-10-oxo-9b,10-dihydro-4bH-benzo[d]indeno[1,2-b]furan-9b-yl)isoquinoline-1-carboxamide] | < 0.01 | > 10 | 6.41 (≈ 13.8 µM)
CC(C)c1ccc2c(c1)OC1(O)c3cccc(N)c3C(=O)C21NC(=O)c1cc2ccccc2n1C (centres unmarked) [Example 268, N-(1-Amino-4b-hydroxy-7-isopropyl-10-oxo-9b,10-dihydro-4bH-indeno[1,2-b]benzofuran-9b-yl)-1-methyl-1H-indole-2-carboxamide] | 0.036 (≈ 0.077 µM) | > 10 | 9.28 (≈ 19.8 µM)
Cc1nn(C)c2ncc(C(=O)NC34C(=O)c5c(N)cccc5C3(O)Oc3cc(C(C)C)ccc34)cc12 (centres unmarked) [Example 271, N-(1-Amino-4b-hydroxy-7-isopropyl-10-oxo-9b,10-dihydro-4bH-indeno[1,2-b]benzofuran-9b-yl)-1,3-dimethyl-1H-pyrazolo[3,4-b]pyridine-5-carboxamide] | < 0.01 | > 10 | –
CC(C)c1ccc2c(c1)OC1(O)c3cccc(N)c3C(=O)C21NC(=O)c1ccc2nccn2c1 (centres unmarked) [Example 272, N-(1-Amino-4b-hydroxy-7-isopropyl-10-oxo-9b,10-dihydro-4bH-indeno[1,2-b]benzofuran-9b-yl)imidazo[1,2-a]pyridine-6-carboxamide] | < 0.01 | > 10 | –
CC(C)c1ccc2c(c1)OC1(O)c3cccc(N)c3C(=O)C21NC(=O)c1cc2ncccn2n1 (centres unmarked) [Example 273, N-(1-Amino-4b-hydroxy-7-isopropyl-10-oxo-9b,10-dihydro-4bH-indeno[1,2-b]benzofuran-9b-yl)pyrazolo[1,5-a]pyrimidine-2-carboxamide] | < 0.01 | > 10 | –
Cc1c(C(=O)NC23C(=O)c4c(N)cccc4C2(O)Oc2cc(C(C)C)ccc23)sc2ccccc12 (centres unmarked) [Example 274, N-(1-Amino-4b-hydroxy-7-isopropyl-10-oxo-9b,10-dihydro-4bH-indeno[1,2-b]benzofuran-9b-yl)-3-methylbenzo[b]thiophene-2-carboxamide] | 0.036 (≈ 0.0743 µM) | > 10 | –
CC(C)c1ccc2c(c1)OC1(O)c3cccc(N)c3C(=O)C21NC(=O)c1cnc2ccccc2n1 (centres unmarked) [Example 275, N-(1-Amino-4b-hydroxy-7-isopropyl-10-oxo-9b,10-dihydro-4bH-indeno[1,2-b]benzofuran-9b-yl)quinoxaline-2-carboxamide] | 0.035 (≈ 0.075 µM) | 4.55 (≈ 9.75 µM) | 4.78 (≈ 10.2 µM)
CC(C)c1ccc2c(c1)OC1(O)c3cccc(N)c3C(=O)C21NC(=O)c1ccnnc1 (centres unmarked) [Example 276, N-(1-Amino-4b-hydroxy-7-isopropyl-10-oxo-9b,10-dihydro-4bH-indeno[1,2-b]benzofuran-9b-yl)pyridazine-4-carboxamide] | < 0.01 | > 10 | –
CC(C)c1ccc2c(c1)OC1(O)c3cccc(N)c3C(=O)C21NC(=O)c1ccc2nnnn2c1 (centres unmarked) [Example 278, N-(1-Amino-4b-hydroxy-7-isopropyl-10-oxo-9b,10-dihydro-4bH-indeno[1,2-b]benzofuran-9b-yl)tetrazolo[1,5-a]pyridine-6-carboxamide] | < 0.01 | > 10 | –
CC(C)c1ccc2c(c1)OC1(O)c3cccc(N)c3C(=O)C21NC(=O)c1cccn2nnnc12 (centres unmarked) [Example 279, N-(1-Amino-4b-hydroxy-7-isopropyl-10-oxo-9b,10-dihydro-4bH-indeno[1,2-b]benzofuran-9b-yl)tetrazolo[1,5-a]pyridine-8-carboxamide] | 0.035 (≈ 0.0767 µM) | 4.94 (≈ 10.8 µM) | 7.88 (≈ 17.3 µM)
Cc1ccnc2nc(C(=O)NC34C(=O)c5c(N)cccc5C3(O)Oc3cc(C(C)C)ccc34)nn12 (centres unmarked) [Example 281, N-(1-Amino-4b-hydroxy-7-isopropyl-10-oxo-9b,10-dihydro-4bH-indeno[1,2-b]benzofuran-9b-yl)-7-methyl-[1,2,4]triazolo[1,5-a]pyrimidine-2-carboxamide] | 0.025 (≈ 0.0531 µM) | > 10 | –

Reference: patent publication US9890133B2 (priority 2011, dated 2018)
